This is an account of results in patent US10189839B2, “Tricyclic imidazole compounds as inhibitors of tryptophan hydroxylase” (ACTELION PHARMACEUTICALS LTD, priority 2013, dated 2019).

The target in the first experiment is T1, full length human TPH1 (Homo sapiens, UniProt P17752).
T1 construct: To generate the enzyme, full length human TPH1 is cloned into the plasmid pET20b(+); made in house; host or cells: E. coli
T1 sequence (P17752 1-444): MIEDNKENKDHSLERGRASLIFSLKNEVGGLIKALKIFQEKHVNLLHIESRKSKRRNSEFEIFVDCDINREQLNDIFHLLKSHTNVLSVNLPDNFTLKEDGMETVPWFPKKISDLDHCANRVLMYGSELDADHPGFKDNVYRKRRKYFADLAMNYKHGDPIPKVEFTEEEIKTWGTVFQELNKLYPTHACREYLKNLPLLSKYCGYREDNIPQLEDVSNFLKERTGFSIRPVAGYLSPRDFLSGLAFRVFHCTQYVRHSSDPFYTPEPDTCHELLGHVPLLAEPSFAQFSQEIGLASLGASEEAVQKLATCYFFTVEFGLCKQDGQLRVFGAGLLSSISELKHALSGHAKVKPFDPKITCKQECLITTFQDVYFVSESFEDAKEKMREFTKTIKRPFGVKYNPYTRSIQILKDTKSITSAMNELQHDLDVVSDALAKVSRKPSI
The experiment is described as follows: Biochemical in vitro assay using fluorescence readout (TPH1 enzyme activity). The conditions noted are these: Table 1, mean where determined several times. The text has this: Inhibitory activities on tryptophan hydroxylase 1 have been measured for each example compound using the following procedure:
Biochemical In Vitro Assay Using Fluorescence Readout
To generate the enzyme, full length human TPH1 is cloned into the plasmid pET20b(+) (Novagen) and expressed in E. coli. The bacterial cells are ruptured by sonication on ice and the lysate is cleared by centrifugation. The resulting protein in the pellet is re-extracted and TPH1 is purified from the obtained lysate by affinity chromatography using a pterin cosubstrate analog immobilized to the resin of the column. The protein is further purified by size exclusion chromatography to remove protein aggregates. The activity of TPH1 is determined by using a fluorescence assay. The enzyme activity assay is carried out at 15° C. with atmosphere oxygen for the duration of 60 minutes in a volume of 64 μl. The reaction is carried out in a 0.1M Tris-HCl buffer, adjusted to pH 7.6, containing 1 mM DTT, 0.2 mg/ml catalase, 100 μM (±)-6-methyl-5,6,7,8-tetrahydropterine dihydrochloride, 40 μM L-tryptophan, and 40-80 nM of TPH1. The reaction is started by bringing together L-tryptophan with all the other reaction substituents and stopped by quenching with perchloric acid (HClO4). The amount of 5-hydroxy-L-tryptophan produced during the enzymatic reaction is determined by fluorescence readout. Fluorescence, as determined at 540 nm when excited at 300 nm wavelength, increases proportionally to the 5-hydroxy-L-tryptophan formed. Compounds are prepared as 10 mM stock solution in DMSO, then diluted in 384-well plates using DMSO followed by a transfer of the dilutions into the assay plate. Fluorescence is measured for each well and the fluorescence at 540 nm wavelength is compared to the fluorescence of the vehicle in place of compound. Inhibitory activities of example compounds with respect to the TPH1 protein are determined by calculating the IC50 value (the concentration of compound needed to inhibit 50% of the enzyme activity). The calculated IC50 values may fluctuate depending on the daily biochemical assay performance. Fluctuations of this kind are known to those skilled in the art. In the case where IC50 values have been determined several times for the same compound, the mean is given.
The IC50 is the point on the concentration scale where inhibition reaches its midpoint. The molecule `CN(C(=O)c1ccc(OCC(=O)N2CCc3nc4n(c3C2c2ccc(Cl)cc2F)CCCC4)c(Cl)n1)C1CC1` (centres unmarked) [Example 1.1.4, 6-chloro-5-(2-(1-(4-chloro-2-fluorophenyl)-3,4,6,7,8,9-hexahydroimidazo[1,2-a:5,4-c′]dipyridin-2(1H)-yl)-2-oxoethoxy)-N-cyclopropyl-N-methylpicolinamide] had an IC50 of 29 nM. Turning to `O=C(COc1ccc(C2CC2)nc1Cl)N1CCc2nc3n(c2C1c1ccc(Cl)cc1F)CCS3` (centres unmarked) [Example 4.1.13, 1-(5-(4-chloro-2-fluorophenyl)-2,3,7,8-tetrahydrothiazolo[2′,3′:2,3]imidazo[4,5-c]pyridin-6(5H)-yl)-2-((2-chloro-6-cyclopropylpyridin-3-yl)oxy)ethanone], the IC50 was determined as 11 nM.

With `CN1CCN(c2ccc(OCC(=O)N3CCc4nc5n(c4C3c3ccc(Cl)cc3F)CCS5)c(Cl)n2)S1(=O)=O` (centres unmarked) [Example 4.1.5, 1-(5-(4-chloro-2-fluorophenyl)-2,3,7,8-tetrahydrothiazolo[2′,3′:2,3]imidazo[4,5-c]pyridin-6(5H)-yl)-2-((2-chloro-6-(5-methyl-1,1-dioxido-1,2,5-thiadiazolidin-2-yl)pyridin-3-yl)oxy)ethanone], the IC50 amounted to 12 nM. For the molecule `CCc1nc(NS(C)(=O)=O)ccc1OCC(=O)N1CCc2nc3n(c2C1c1sccc1F)CCCC3` (centres unmarked) [Example 1.14.1, N-(6-ethyl-5-(2-(1-(3-fluorothiophen-2-yl)-3,4,6,7,8,9-hexahydroimidazo[1,2-a:5,4-c′]dipyridin-2(1H)-yl)-2-oxoethoxy)pyridin-2-yl)methanesulfonamide], the IC50 came out at 16 nM. `CS(=O)(=O)Nc1ccc(OCC(=O)N2CCc3nc4n(c3C2c2ccc(OCCO)cc2F)CCCC4)c(Cl)n1` (centres unmarked) [Example 1.28.2, N-(6-chloro-5-(2-(1-(2-fluoro-4-(2-hydroxyethoxy)phenyl)-3,4,6,7,8,9-hexahydroimidazo[1,2-a:5,4-c′]dipyridin-2(1H)-yl)-2-oxoethoxy)pyridin-2-yl)methanesulfonamide] had an IC50 of 21 nM. `COc1nc(NS(C)(=O)=O)ccc1OCC(=O)N1CCc2nc3n(c2C1c1ccc(Cl)cc1F)CCCC3` (centres unmarked) [Example 1.1.13, N-(5-(2-(1-(4-chloro-2-fluorophenyl)-3,4,6,7,8,9-hexahydroimidazo[1,2-a:5,4-c′]dipyridin-2(1H)-yl)-2-oxoethoxy)-6-methoxypyridin-2-yl)methanesulfonamide] displayed an IC50 of 347 nM. Regarding `N#Cc1ccc(OCC(=O)N2CCc3nc4n(c3C2c2ccc(C3CC3)cc2F)CCNC4)c(Cl)n1` (centres unmarked) [Example 5.2.11, 6-chloro-5-(2-(1-(4-cyclopropyl-2-fluorophenyl)-3,4,6,7,8,9-hexahydropyrido[4′,3′:4,5]imidazo[1,2-a]pyrazin-2(1H)-yl)-2-oxoethoxy)picolinonitrile], the IC50 was 108 nM. In the case of `O=C(NC1CC1)c1ccc(OCC(=O)N2CCc3nc4n(c3C2c2ccc(OCCO)cc2F)CCCC4)c(Cl)n1` (centres unmarked) [Example 1.28.1, 6-chloro-N-cyclopropyl-5-(2-(1-(2-fluoro-4-(2-hydroxyethoxy)phenyl)-3,4,6,7,8,9-hexahydroimidazo[1,2-a:5,4-c′]dipyridin-2(1H)-yl)-2-oxoethoxy)picolinamide], the IC50 turned out to be 54 nM. Still for that read-out and setting: then `CC(C)(O)c1ccc(C2c3c(nc4n3CCCC4)CCN2C(=O)COc2ccc(NS(C)(=O)=O)nc2Cl)c(F)c1` (centres unmarked) [Example 1.24.2, N-(6-chloro-5-(2-(1-(2-fluoro-4-(2-hydroxypropan-2-yl)phenyl)-3,4,6,7,8,9-hexahydroimidazo[1,2-a:5,4-c′]dipyridin-2(1H)-yl)-2-oxoethoxy)pyridin-2-yl)methanesulfonamide], with 131 nM; and `O=C(COc1cccnc1C(F)(F)F)N1CCc2nc3n(c2C1c1ccc(C2CC2)cc1F)CCNC3` (centres unmarked) [Example 5.2.10, 1-(1-(4-cyclopropyl-2-fluorophenyl)-3,4,6,7,8,9-hexahydropyrido[4′,3′:4,5]imidazo[1,2-a]pyrazin-2(1H)-yl)-2-((2-(trifluoromethyl)pyridin-3-yl)oxy)ethanone], with 50 nM.

The molecule `CC(=O)N1CCn2c(nc3c2C(c2sc(C)nc2C)N(C(=O)COc2ccc(-c4ncco4)nc2Cl)CC3)C1` (centres unmarked) [Example 5.17.1, 1-(7-acetyl-1-(2,4-dimethylthiazol-5-yl)-3,4,6,7,8,9-hexahydropyrido[4′,3′:4,5]imidazo[1,2-a]pyrazin-2(1H)-yl)-2-((2-chloro-6-(oxazol-2-yl)pyridin-3-yl)oxy)ethanone] gave an IC50 of 27 nM.

As to `Cc1ccc(C2c3c(nc4n3CCCC4)CCN2C(=O)COc2ccc(NS(C)(=O)=O)nc2Cl)c(F)c1F` (centres unmarked) [Example 1.9.2, N-(6-chloro-5-(2-(1-(2,3-difluoro-4-methylphenyl)-3,4,6,7,8,9-hexahydroimidazo[1,2-a:5,4-c′]dipyridin-2(1H)-yl)-2-oxoethoxy)pyridin-2-yl)methanesulfonamide], the IC50 stood at 26 nM.

For `CCc1nc(C)ccc1OCC(=O)N1CCc2nc3n(c2C1c1ccc(C2CC2)cc1F)CCN(C(=O)OC(C)(C)C)C3` (centres unmarked) [Example 5.2.1, tert-butyl 1-(4-cyclopropyl-2-fluorophenyl)-2-(2-((2-ethyl-6-methylpyridin-3-yl)oxy)acetyl)-1,2,3,4,8,9-hexahydropyrido[4′,3′:4,5]imidazo[1,2-a]pyrazine-7(6H)-carboxylate], the IC50 is 74 nM. Turning to `CCc1nc(C(=O)NC2CC2)ccc1OCC(=O)N1CCc2nc3n(c2[C@@H]1c1ncc(C2CC2)cc1F)CCS3` [Example 4.2.3, (R)-N-cyclopropyl-5-(2-(5-(5-cyclopropyl-3-fluoropyridin-2-yl)-2,3,7,8-tetrahydrothiazolo[2′,3′:2,3]imidazo[4,5-c]pyridin-6(5H)-yl)-2-oxoethoxy)-6-ethylpicolinamide], inhibition was half-maximal at 16 nM (IC50). The molecule `CN(c1ccc(OCC(=O)N2CCc3nc4n(c3C2c2ccc(Cl)cc2F)CCS4)c(Cl)n1)S(C)(=O)=O` (centres unmarked) [Example 4.1.4, N-(6-chloro-5-(2-(5-(4-chloro-2-fluorophenyl)-2,3,7,8-tetrahydrothiazolo[2′,3′:2,3]imidazo[4,5-c]pyridin-6(5H)-yl)-2-oxoethoxy)pyridin-2-yl)-N-methylmethanesulfonamide] returned an IC50 of 16 nM. `CC(=O)N1CCn2c(nc3c2C(c2ncc(C4CC4)cc2F)N(C(=O)COc2cc(F)cnc2Cl)CC3)C1` (centres unmarked) [Example 5.4.7, 1-(7-acetyl-1-(5-cyclopropyl-3-fluoropyridin-2-yl)-3,4,6,7,8,9-hexahydropyrido[4′,3′:4,5]imidazo[1,2-a]pyrazin-2(1H)-yl)-2-((2-chloro-5-fluoropyridin-3-yl)oxy)ethanone] came in with an IC50 of 431 nM.

As for `CCc1nc(Cl)ncc1OCC(=O)N1CCc2nc3n(c2C1c1ccc(Cl)cc1F)CCS3` (centres unmarked) [Example 4.1.11, 1-(5-(4-chloro-2-fluorophenyl)-2,3,7,8-tetrahydrothiazolo[2′,3′:2,3]imidazo[4,5-c]pyridin-6(5H)-yl)-2-((2-chloro-4-ethylpyrimidin-5-yl)oxy)ethanone], the IC50 stood at 185 nM. The same measure, in the same setting: in the case of `CCc1nc(NS(C)(=O)=O)ncc1OCC(=O)N1CCc2nc3n(c2C1c1sc(C)nc1C)CCCC3` (centres unmarked) [Example 1.10.18, N-(5-(2-(1-(2,4-dimethylthiazol-5-yl)-3,4,6,7,8,9-hexahydroimidazo[1,2-a:5,4-c′]dipyridin-2(1H)-yl)-2-oxoethoxy)-4-ethylpyrimidin-2-yl)methanesulfonamide] it was 121 nM; in that of `Cc1ccc(C2c3c(nc4n3CCN(C(=O)OC(C)(C)C)C4)CCN2C(=O)COc2ccc(CN3CCOCC3)cc2Cl)c(F)c1` (centres unmarked) [Example 5.12.1, tert-butyl 2-(2-(2-chloro-4-(morpholinomethyl)phenoxy)acetyl)-1-(2-fluoro-4-methylphenyl)-1,2,3,4,8,9-hexahydropyrido[4′,3′:4,5]imidazo[1,2-a]pyrazine-7(6H)-carboxylate], 310 nM.

Staying with this experiment, now noted: Table 2.
The molecule `CN(C)C(=O)c1csc(C2c3c(nc4n3CCNC4)CCN2C(=O)COc2ccc(N3CCOCC3)nc2Cl)c1` (centres unmarked) [Example 5.3.1, 5-(2-(2-((2-Chloro-6-morpholinopyridin-3-yl)oxy)acetyl)-1,2,3,4,6,7,8,9-octahydropyrido[4′,3′:4,5]imidazo[1,2-a]pyrazin-1-yl)-N,N-dimethylthiophene-3-carboxamide] registered an IC50 of 94 nM.
